Laboratory results as given in patent US8835461B2, “Substituted 3-hydroxy-4-pyridone derivative” (priority 2009, dated 2014).
pIC50: −log10 of the molar value.

molecular target: Cap-dependent endonuclease (CEN); RNP fraction containing PB1•PB2•PA complex (Influenza A virus, UniProt P15659); assay: Measurement of cap-dependent endonuclease (CEN) inhibitory activity; format: biochemical, influenza A/WSN/33 virus; settings: RNP enzyme from A/WSN/33 virus, capped Cy3/BHQ2-labelled 30mer RNA substrate, 60 minutes at room temperature; read-out: CEN IC50

Row | Structure (SMILES) | pIC50
1 | O=C(O)c1cn(CC2(c3ccccc3)CCOCC2)cc(O)c1=O [Example 183] | 6.75
2 | O=C(O)c1cn(Cc2ccccc2-c2ccccc2)cc(O)c1=O [Example 10] | 6.66
3 | O=c1c(O)cn(Cc2ccccc2-c2ccc(F)c(Cl)c2)cc1O [Example 222] | 6.29
4 | O=C(O)c1cn(CC2(n3ccc4ccccc43)CCCC2)cc(O)c1=O [Example 186] | 7.46
5 | O=C(O)c1cn(CC2(c3ccc4c(c3)OCO4)CCCC2)cc(O)c1=O [Example 171] | 7.80
6 | O=C(O)c1cn(Cc2ccccc2-c2ccc(NCC3CCCCC3)nc2)cc(O)c1=O [Example 52] | 6.34
7 | COc1ncc(-c2ccccc2Cn2cc(O)c(=O)c(C(=O)O)c2)cn1 [Example 46] | 6.49
8 | O=C(O)c1cn(CC2(c3nc4ccccc4s3)CCCC2)cc(O)c1=O [Example 173] | 7.33
9 | O=C(O)c1cn(CC2(c3ccccc3)CCCC2)cc(O)c1=O [Example 112] | 7.21
10 | O=C(O)c1cn(CC2(c3cccc(C(F)(F)F)c3)CCCC2)cc(O)c1=O [Example 167] | 7.92
11 | O=C(O)c1cn(CC2CCCCN2C(=O)OCc2ccccc2F)cc(O)c1=O (stereo not drawn) [Example 127] | 6.50
12 | O=C(O)c1cn(CC2(c3ccccn3)CCCC2)cc(O)c1=O [Example 177] | 6.96
13 | CCCCS(=O)(=O)NC(=O)c1cn(Cc2ccccc2-c2ccccc2)cc(O)c1=O [Example 197] | 6.27
14 | O=C(O)c1cn(CC2CCCC2)cc(O)c1=O [Example 18] | 6.07
15 | N#Cc1ccccc1CN1CCCCC1Cn1cc(O)c(=O)c(C(=O)O)c1 (stereo not drawn) [Example 116] | 6.66
16 | CC(=O)c1ccc(-c2ccccc2Cn2cc(O)c(=O)c(C(=O)O)c2)cc1 [Example 22] | 6.66
17 | O=C(O)c1cn(CC2(c3ccccc3)Cc3ccccc3C2)cc(O)c1=O [Example 182] | 6.56
18 | O=C(O)c1cn(CC2(c3cccc4ccccc34)CCCC2)cc(O)c1=O [Example 178] | 7.55
19 | O=C(O)c1cn(C[C@@H]2CCCN2c2ccccc2)cc(O)c1=O [Example 57] | 6.37
20 | O=C(O)c1cn(CC2(n3ccc4cccnc43)CCCC2)cc(O)c1=O [Example 185] | 8.30
21 | O=C(NS(=O)(=O)C1CC1)c1cn(Cc2ccccc2-c2ccccc2)cc(O)c1=O [Example 195] | 6.17

same assay, conditions: statement in text following Table 36; same CEN assay; read-out: IC50 (CEN)

Row | Structure (SMILES) | pIC50
22 | CC(C)(Cn1cc(O)c(=O)c(C(=O)O)c1)c1ccccc1 [Example 227] | ≥ 6.00
23 | O=C(O)c1cn(CC2(c3ccnc(NCC4CCCCC4)c3)CCCC2)cc(O)c1=O [Example 239] | ≥ 6.00
24 | Cn1cc(C2(Cn3cc(O)c(=O)c(C(=O)O)c3)CCCC2)c2ncccc21 [Example 242] | ≥ 6.00
25 | O=C(O)c1cn(CC2(C(=O)c3ccccc3)CCCC2)cc(O)c1=O [Example 231] | ≥ 6.00
26 | O=C(O)c1cn(CC2(c3cccc(N4CCCCC4=O)c3)CCCC2)cc(O)c1=O [Example 235] | ≥ 6.00
27 | O=C(O)c1cn(CC2(c3cccc(N4CCCS4(=O)=O)c3)CCCC2)cc(O)c1=O [Example 236] | ≥ 6.00
28 | O=C(O)c1cn(CC2(c3cccc(N4CCCC4=O)c3)CCCC2)cc(O)c1=O [Example 234] | ≥ 6.00
29 | O=C(O)c1cn(Cc2cccn2-c2ccccc2)cc(O)c1=O [Example 226] | ≥ 6.00
30 | O=C(O)c1cn(CC2(c3ccnc(-n4cccn4)c3)CCCC2)cc(O)c1=O [Example 238] | ≥ 6.00
31 | O=C(O)c1cn(CC2(n3ccc4cc(Cl)cnc43)CCCC2)cc(O)c1=O [Example 240] | ≥ 6.00
32 | Cn1cc(C2(Cn3cc(O)c(=O)c(C(=O)O)c3)CCCC2)c2ccccc21 [Example 244] | ≥ 6.00
33 | Cn1cc(C2(Cn3cc(O)c(=O)c(C(=O)NS(C)(=O)=O)c3)CCCC2)c2ccccc21 [Example 246] | ≥ 6.00
34 | O=c1c(O)cn(CC2(c3cccc(F)c3)CCCC2)cc1-c1nnn[nH]1 [Example 233] | ≥ 6.00
35 | O=C(O)c1cn(CC2(C(=O)Nc3ccccc3)CCCC2)cc(O)c1=O [Example 232] | ≥ 6.00
36 | O=C(O)c1cn(CC2(n3cc(C(F)(F)F)c4cccnc43)CCCC2)cc(O)c1=O [Example 243] | ≥ 6.00
